The text below walks through data of US10030047B2 (Hoffmann-La Roche Inc., priority 2015, dated 2018).

Each structure is given as a SMILES string.

For one test, the system named is A. baumannii strain ATCC17978. Put plainly: 50% growth inhibitory concentration (IC50) determination, Iso-Sensitest broth. It is filed as cell-based. The note with it: Acinetobacter baumannii, ATCC17978, 16 h, read-out: IC50 ATCC17978. An outline of the steps:
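Twofold dilution series (e.g. 50 to 0.097 μM final) in Iso-Sensitest broth, inoculum ~5×10^(5) CFU/ml, incubated at 35±2° C. OD600 read every 20 min over 16 h; IC50 and IC90 calculated during logarithmic growth.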
With `CN1C(=O)[C@H](CCCCN)NC(=O)[C@H](CCCN)NCc2cccnc2Sc2c(Cl)ccc(-c3ccc(C(=O)O)cc3)c2CNC(=O)[C@@H]1Cc1c[nH]c2ccccc12` [Example 239, 4-[(11S,14S,17S)-14-(4-Amino-butyl)-11-(3-amino-propyl)-25-chloro-17-(1H-indol-3-ylmethyl)-16-methyl-12,15,18-trioxo-2-thia-4,10,13,16,19-pentaaza-tricyclo[19.4.0.0*3,8*]pentacosa-1 (25),3(8),4,6,21,23-hexaen-22-yl]-benzoic acid], the IC50 was below 1000 nM.

The test is the same for the next values; noted with them: Acinetobacter baumannii; A. baumannii ATCC17978; Iso-Sensitest medium; OD 600 nm over 16 h; read-out: IC50 ATCC17978.
In the case of `Cc1cc(-c2ccc3c(n2)CNC(=O)[C@H](Cc2c[nH]c4ccccc24)N(C)C(=O)[C@H](CCCCN)NC(=O)[C@H](CCCN)NCc2cccnc2S3)ccn1` [Example 215, (7S,10S,13S)-13-((1H-Indol-3-yl)methyl)-10-(4-aminobutyl)-7-(3-aminopropyl)-12-methyl-18-(2-methylpyridin-4-yl)-6,7,9,10,12,13,15,16-octahydrodipyrido[2,3-b:2′,3′-p][1,5,8,11,14]thiatetraazacycloheptadecine-8,11,14(5H)-trione], the IC50 came to 2000 nM.
In the case of `CN1C(=O)[C@H](CCCCN)NC(=O)[C@H](CCCN)NCc2ccc(Br)cc2Sc2c(Cl)cccc2CNC(=O)[C@@H]1Cc1c[nH]c2ccccc12` [Example 219, (12S,15S,18S)-15-(4-Amino-butyl)-18-(3-amino-propyl)-24-bromo-4-chloro-12-(1H-indol-3-ylmethyl)-13-methyl-2-thia-10,13,16,19-tetraaza-tricyclo[19.4.0.0*3,8*]pentacosa-1(25),3,5,7,21,23-hexaene-11,14,17-trione], the IC50 worked out at 600 nM.
As to `CN1C(=O)[C@H](CCCCN)NC(=O)[C@H](CCCN)NCc2cc(-c3ccc(CN)cc3)ccc2Sc2c(Cl)cccc2CNC(=O)[C@@H]1Cc1c[nH]c2ccccc12` [Example 216, (12S,15S,18S)-15-(4-Amino-butyl)-23-(4-aminomethyl-phenyl)-18-(3-amino-propyl)-4-chloro-12-(1H-indol-3-ylmethyl)-13-methyl-2-thia-10,13,16,19-tetraaza-tricyclo[19.4.0.0*3,8*]pentacosa-1(25),3,5,7,21,23-hexaene-11,14,17-trione], the IC50 is 700 nM.
For the compound `CN1C(=O)[C@H](CCCCN)NC(=O)[C@H](CCCN)NCc2cc(-c3cccnc3)ccc2Sc2c(Cl)cccc2CNC(=O)[C@@H]1Cc1c[nH]c2ccccc12` [Example 208, (12S,15S,18S)-15-(4-Amino-butyl)-18-(3-amino-propyl)-4-chloro-12-(1H-indol-3-ylmethyl)-13-methyl-23-pyridin-3-yl-2-thia-10,13,16,19-tetraaza-tricyclo[19.4.0.0*3,8*]pentacosa-1(25),3,5,7,21,23-hexaene-11,14,17-trione], the IC50 turned out to be 12500 nM.
For `CN1C(=O)[C@H](CCCCN)NC(=O)[C@H](CCCN)NCc2cccnc2Sc2c(Cl)ccc(C(F)(F)F)c2CNC(=O)[C@@H]1CC1CNc2ccccc21` (stereo partly drawn) [Example 136, (11S,14S,17S)-14-(4-Amino-butyl)-11-(3-amino-propyl)-25-chloro-17-(2,3-dihydro-1H-indol-3-ylmethyl)-16-methyl-22-trifluoromethyl-2-thia-4,10,13,16,19-pentaaza-tricyclo[19.4.0.0*3,8*]pentacosa-1(25),3,5,7,21,23-hexaene-12,15,18-trione], the IC50 was 600 nM.
